Values of other authors, collected in patent publication US20250295594A1, “ENTERAL SUSTAINED-RELEASE SUGAR ALCOHOL ADDITIVE AND PREPARATION METHOD AND APPLICATION THEREOF” (ZHEJIANG HUAKANG PHARMACEUTICAL CO., LTD., priority 2020, published 2025).

Conditions: existing experimental data, unformulated sugar / sugar alcohol

Row | Structure (SMILES) | absorption rate of the small intestine
1 | OC[C@@H](O)[C@H](O)[C@@H](O)CO [xylitol] | 60%
2 | O=C[C@H](O)[C@@H](O)[C@@H](O)CO [arabinose, L-arabinose] | 70%
